In data set [1] the target is T1, VHL (Homo sapiens, UniProt P40337).
T1 construct: host or cells: HEK293, transient transfection
The data set is described as follows: NanoBRET VHL target engagement, permeabilised-cell mode. It counts as cell-based. The settings on record: HEK293 transfected with VHL-NanoLuc, tracer 0.5 μM. An excerpt: (§1) To this end, we assessed the PROTAC cellular permeability by evaluating VHL target engagement using the Promega NanoBRET TE Intracellular E3 Ligase.[62] Current PROTAC permeability assays use artificial systems like PAMPA and Caco-2, designed for small molecules but not always effective for PROTACs due to their low permeability, high molecular weight and assay caveats (i.e., unspecific binding and low recovery).[63],[64] The NanoBRET assay is a high-throughput method validated for measuring E3 ligase engagement in live and permeabilised cells. The assay allows to rank PROTAC intracellular availability through competitive probe displacement and offers a simple workflow for prioritising compounds based on properties associated with permeability. […] Specifically, in the live-cell mode, the assay measures the apparent cellular affinity, where the plasma membrane is intact and can impede the compound’s access to its target. In the permeabilised-cell mode, the barrier posed by the plasma membrane is removed and the intrinsic affinity of the compound for target is measured. […] The ratio of potencies between live-cell and permeabilised-cell modes, referred to as the relative-binding affinity (RBA) value increases as intracellular availability decreases and is thus a metric for assessing a PROTAC̀s cellular availability. […]
A general note: BRET reads energy transfer from a luciferase to a nearby fluorophore.

The nature of data set [2]: HBD acidity NMR score (ANMR), amide NH shifts in CDCl3 vs DMSO-d6. The data set is classed as physicochemical. An excerpt: With this premise, we performed NMR studies to quantify the HBD solvent exposure of the amide protons using the HBD Acidity NMR score (ANMR)[47] and variable temperature studies (vt-NMR).[48] To note, although vt-NMR has originally been developed and applied to the study of peptides,[49] it is, together with the ANMR value, a well-established method for studying the intramolecular hydrogen bonding (IMHB) patterns in systems such as PROTACs[10],[12],[18],[26] as well as in ferrocene structures.[29],[50]−[53]
Considering the assumed flexibility of the ferrocene moiety, we anticipated the amide protons in AS4 next to the ferrocene moiety, i.e., N(3)-H and N(4)-H, to show greater shielding effects in CDCl3 as compared to DMSO-d6, consistently with a preference for the cis conformation. In contrast, in the presence of a strong hydrogen-bond acceptor solvent such as DMSO-d6, the intercalation of polar solvent molecules is likely to disrupt the IMHB, favoring an expanded trans conformation[50] of the substituent chains (Figure 4A). An initial analysis of the ^1H NMR spectra was obtained on samples in deuterated CDCl3 and DMSO-d6. […]
The chemical shift difference between the two solvents (Δδ) can be converted into hydrogen bond acidity (ANMR) for a quantitative assessment of IMHB. […]
Standard NMR experiments were performed at 298 K, while variable-temperature NMR experiments recorded spectra across a temperature range from 298 K to 328 K allowing a sufficient temperature equilibration time (10–15 min) before signal acquisition. All NOESY spectra for conformational analysis as well as the assignment spectra in methanol-d 4 were recorded on a 500 MHz Bruker Avance III equipped with a 5 mm QCI cryogenic probe. NOESY spectra were obtained from a sample at 1.25 mM in CDCl3 and 1.25 mM in methanol-d4, recorded at 298 K, using 16 transients, 1024 points in the direct dimension and 512 points in the indirect dimension, a relaxation delay of 1.5 s, and a mixing time of 700 ms. All other spectra used for signal assignment in CDCl3 were recorded on 500 MHz Bruker Avance NEO with a BBFO SmartProbe. […]

Data set [3] addresses T1, VHL. The data set is described as follows: NanoBRET VHL target engagement, live-cell mode. The settings on record: for IC50: HEK293 transfected with VHL-NanoLuc, live cells, tracer 1 μM. It counts as cell-based.
Excerpt: as §1

A further data set addresses T2, CRBN (Homo sapiens, UniProt Q96SW2).
T2 construct: endogenous in cells; host or cells: HEK293 (ATCC)
Details: method as in PMID 30826187. The settings on record: cited from earlier work.

Another data set in a line: Plasma stability assay. It counts as in vitro ADME. The settings on record: mouse plasma; read-out: stability T1/2 in mouse plasma. As to the method: Frozen plasma was thawed at 37 °C and centrifuged at 3000 rpm for 8 min to remove clots, and the supernatant was used in the experiment. The pH of the plasma was recorded, and only the pH range between 7.4 and 8 was used. The plasma and compound solution were prewarmed to 37 °C. 10 µL of prewarmed testing compound or reference compound (procaine) solution (20 μM in 0.05 mM sodium phosphate buffer (pH 7.4) with 0.5% BSA) was mixed with 90 μL of plasma at different time points to allow for 5, 15, 30, 45, and 60 min of incubation time. For 0 min, the plasma was mixed with vehicle only. Acetonitrile was added to the compound and plasma mixture to quench the reaction, and the resulting mixture was centrifuged (5594g for 15 min). The

Another data set addresses T3, pVHL30 (Homo sapiens, UniProt P40337).
T3 construct: endogenous in cells; host or cells: HEK293 (ATCC)
The data set is described as follows: Western blot VHL degradation in HEK293 cells. It counts as cell-based.

Read-outs that look alike come from different tables or passages of the source.

T1 sequence (P40337 whole entry): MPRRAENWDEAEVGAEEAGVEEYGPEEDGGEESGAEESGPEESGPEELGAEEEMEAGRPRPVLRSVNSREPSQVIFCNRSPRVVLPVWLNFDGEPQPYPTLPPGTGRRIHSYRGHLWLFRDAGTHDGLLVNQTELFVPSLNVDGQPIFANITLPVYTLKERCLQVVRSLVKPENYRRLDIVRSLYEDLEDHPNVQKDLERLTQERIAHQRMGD
T3 sequence (P40337 whole entry): as above
T2 sequence (Q96SW2 whole entry): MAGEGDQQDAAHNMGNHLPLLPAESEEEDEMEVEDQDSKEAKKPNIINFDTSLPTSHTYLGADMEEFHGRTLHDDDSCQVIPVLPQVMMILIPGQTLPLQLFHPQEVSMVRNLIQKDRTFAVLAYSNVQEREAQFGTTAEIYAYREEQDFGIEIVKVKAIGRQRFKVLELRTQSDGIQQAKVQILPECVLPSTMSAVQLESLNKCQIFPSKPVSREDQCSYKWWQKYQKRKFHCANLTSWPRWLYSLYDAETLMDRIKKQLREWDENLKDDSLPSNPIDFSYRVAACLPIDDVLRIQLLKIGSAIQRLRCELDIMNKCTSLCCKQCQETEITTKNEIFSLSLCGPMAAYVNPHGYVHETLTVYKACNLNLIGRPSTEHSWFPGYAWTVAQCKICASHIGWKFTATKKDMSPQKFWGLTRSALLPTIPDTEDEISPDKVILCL
Protocol for pVHL30: To further elucidate the mode of action of FerroTAC AS2, we explored its dependency on ubiquitination and proteasome activity.
A) Representative immunoblots of VHL protein levels after treatment of
HEK293 cells. Cells were treated with 0.1% EtOH, 0.1 μM or 1 μM of the indicated compounds for 4 and 24 h.
Controls were included at 1 μM for 24 h. Mean values of two biologically independent experiments.
Representative time-course immunoblots of VHL protein levels after treatment of HEK293 cells treated with
Cells were treated with 0.1% EtOH and controls at 1 μM. Mean values of two biologically
independent experiments. Apparent half-life values (t 1/2) were estimated by fitting band intensity against time
using a single-phase exponential decay model. C) Representative immunoblots of VHL protein levels in
neddylation inhibitor MLN4924 (3 μM) and VHL inhibitor VH032 (50 μM). The amount of EtOH (0.1%) and
DMSO (0.5%) is fixed in all samples. Band quantification was performed using ImageJ software and reported
(in black and black) as relative amount as ratio of each protein band relative to the lane’s loading control
(tubulin). VHL/tubulin protein ratios were normalised to the average of the controls (100%).
HEK293 and HCT116 cell lines, purchased from ATCC, were cultured in Dulbecco’s modified Eagle’s medium (DMEM, Gibco) supplemented with 10% fetal bovine serum (FBS, Gibco), L-glutamine (2 mM, Gibco) and 100 μg/mL of penicillin/streptomycin (Gibco). All cell lines were maintained in a humidified incubator at 37 °C and 5% CO2 for no more than 30 passages. Cells were routinely tested for mycoplasma contamination.
Cell Treatment for Immunoblotting
depending on the experimental setup. Cells were treated in fresh medium with the indicated compounds under indicated conditions with a final EtOH or iPrOH concentration of 0.01% (v/v) to 0.1% (v/v) depending on the experimental setup. […]
stored at −80°C. Protein concentration was determined by bicinchoninic acid (BCA) assay (Thermo Fisher […]
Quantitative Immunoblotting […]

For orientation: IC50 means the midpoint of a concentration-inhibition curve. On VHL [1], `Cc1ncsc1-c1ccc(CNC(=O)[C@@H]2C[C@@H](O)CN2C(=O)[C@@H](NC(=O)CCCCCOCCOCCCCCC(=O)Nc2cccc3c2C(=O)N(C2CCC(=O)NC2=O)C3=O)C(C)(C)C)cc1` (some centres unmarked) [14a] came in with an IC50 of 300 nM. Moreover, in data set [2], the “ANMR N(1)-H” value is on record as 0.16, the “Δδ N(1)-H” value is listed as 1.16 ppm and the “Δδ N(2)-H” value is 0.15 ppm. On VHL [3], the “AI (availability index = RBAPROTAC ÷ RBAVH298)” value is reported as 4.2, the “RBA (relative binding affinity = IC50live ÷ IC50perm)” value is given as 4.4, the “fold lower potency in live-cell vs permeabilised-cell assay” value came to 4 fold and 1330 nM corresponded to half-maximal inhibition (IC50). Further, at CRBN, the DC50 is 200 nM. In “Plasma stability assay”, the half-life at 2 µM came out at 0.557 h.
The term Dmax denotes the largest share of the target that was removed. `Cc1ncsc1-c1ccc(CNC(=O)[C@@H]2C[C@@H](O)CN2C(=O)[C@@H](NC(=O)COCCOCCOCCOCCOCCOCC(=O)N[C@H](C(=O)N2C[C@H](O)C[C@H]2C(=O)NCc2ccc(-c3scnc3C)cc2)C(C)(C)C)C(C)(C)C)cc1` [CM11]: the IC50 on VHL [1] came out at 300 nM; against VHL [3], 450 nM. On VHL [3], the “AI (availability index = RBAPROTAC ÷ RBAVH298)” value is recorded as 1.4. The “RBA (relative binding affinity = IC50live ÷ IC50perm)” value at VHL [3] is recorded as 1.4. For the same compound, the half-life at 2 µM in “Plasma stability assay” was determined as 3.9 h. Also, the maximal degradation (Dmax) at 1 µM at pVHL30 (HEK293, 4 h, read-out: Dmax at 1 μM (pVHL30)) worked out at 98%; on pVHL30 (HEK293, 24 h, read-out: maximal degradation (Dmax) of pVHL30), 100%.

Values taken from paper PMC12022980, “Rational Design of PROTAC Linkers Featuring Ferrocene as a Molecular Hinge to Enable Dynamic Conformational Changes” (Journal of the American Chemical Society, 2025).
